Where only a bound is given, the exact number is not on record here.

Series [1] relates to HGC-27 cells. As to the kind of experiment: Colony formation assay, HGC-27. Particulars: HGC-27, 7 days treatment, compared with DMSO or MI-929. It is filed as cell-based, human. The method, then: (§1) The day before treatment, cells were seeded into six-well plates at a concentration of 1 × 10^3 cells per well, and then the media were replaced with fresh media containing serial concentrations of candidate compounds. After 7 days of treatment, the cells were fixed with 75% ethanol, stained with 0.1% crystal violet solution and captured by the microscopy (Leica). After that, the crystal violet crystals were dissolved by adding methanol. The absorbance at 595 nm was measured by a BioTek micro plate reader. In the end, the data were analyzed using the GraphPad Prism 5 software.

Series [2] concerns MGC-803 cells. As to the kind of experiment: Colony formation assay, MGC-803. It is filed as cell-based, human. Particulars: MGC-803, 7 days treatment, compared with DMSO or MI-929. The method, then:
as §1

The target in series [3] is T1, MTH1 (Homo sapiens, UniProt P36639). The series is described as follows: MTH1 recombinant protein activity / inhibitor screening (malachite green). The series is classed as biochemical. On the set-up: His-tag; made in house; host or cells: E. coli BL21(DE3). Particulars: 5 nM recombinant MTH1, dGTP substrate, absorbance 630 nm; read-out: IC50 (MTH1 inhibition). The method, then:
On the basis of the ability of MTH1 in converting dGTP to dGMP and pyrophosphate, and the latter can then be hydrolyzed to […] by inorganic pyrophosphatase, the MTH1 activity was designed to measure the product of […], after its reaction with malachite green and ammonium molybdate(Fig. 2l), the green associated complex was measured at 630 nm by PerkinElmer Envision microplate reader.
Firstly, the assay buffer (100 mM Tris-acetate at pH 8.0, 40 mM NaCl, 10 mM Mg-acetate, 0.005% Tween 20 and 1 mM DTT) was added into a 96-well plate. Then, 5 nM recombinant human MTH1, […] dGTP and 0.2U/ml […] were added in sequence. After 60 min reaction, the mixture of 0.45 mg/mL malachite green and 4.2% ammonium molybdate in proportion of 3:1 were added. Then, the plates were incubated and shaken at room temperature for another 60 min. The absorbance was measured at 630 nm using the PerkinElmer Envision micro plate reader.

Series [4] deals with T1, MTH1. As to the kind of experiment: Cellular thermal shift assay (CETSA), MTH1. Details: endogenous in cells; host or cells: MGC-803 (human gastric cancer cell line). The series is classed as binding. Particulars: MGC-803 cells, 50 µM compound, heated 10 min from 43 to 61 °C, western blot. The method, then: Cellular thermal shift assay (CETSA), also known as the target engagement assay was one-way to detect the intracellular interaction ability of compounds with its specific target. Firstly, cells were seeded into T75 culture flasks and cultured overnight. Then, the cells were treated with cell media containing 1‰ DMSO as blank control and candidate compounds for 3–5 h. Next, the cells were collected by centrifugation and resuspended by PBS, then the cells were aliquoted into 7 PCR tubes and heated using PCR instrument for 10 min from 43 to 61 °C. After that, cells were lysed using liquid nitrogen and three repeated cycles of freeze-thawing. Then, samples were centrifuged at 12,000 × g for 20 min at 4 °C. Supernatants were denatured at 100 °C for 10 min and kept at −20 °C until Western Blot analysis.
Background: In western blotting, separated proteins are transferred to a membrane and probed.

Series [5] deals with EC9706 cells. As to the kind of experiment: MTT cell viability, EC9706. The following applies: Homo sapiens, esophageal cancer cell line, 72 h. The series is classed as cell-based. The method, then: (§2) The cell viability was determined by 3-(4,5-dimethylthiazol-2-yl)-2,5-diphenyltetrazolium bromide (MTT) assay, according to the manufacturer’s instructions. 1 day before treatment, cells were seeded into 96-well plates at a concentration of 2–5 × 10^3 cells per well, followed by treatment with fresh medium containing serial dilutions of candidate compounds for 48 or 72 h, 20 μL of MTT solution (5 mg/mL in PBS) was then added to each well. After treatment, the plates were incubated at 37 °C for another 4 h. Subsequently, the MTT solution was removed and 150 μL of DMSO was added to each well for 10 min, and then the plates were shaken to dissolve the dark blue crystal (formazan), the absorbance was detected at 570 nm using a BioTek microplate reader. The data were analyzed using SPSS 20 software.

Series [6] has as its system ZIP177 cells. As to the kind of experiment: MTT cell viability, ZIP177. It is filed as cell-based. The following applies: Homo sapiens, liver cancer cell line, 72 h. The method, then: as §2
Series [7] relates to H1975 cells. The series is described as follows: MTT cell viability, H1975. It is filed as cell-based. Particulars: Homo sapiens, NCI-H1975, 72 h. As for the experimental part:
as §2

In series [8] the test system is MGC-803 cells. The series is described as follows: MTT cell viability, MGC-803. The series is classed as cell-based. Particulars: Homo sapiens, gastric cancer cell line, 72 h. As for the experimental part: as §2
Series [9] relates to HGC-27 cells. The series is described as follows: MTT cell viability, HGC-27. Particulars: Homo sapiens, gastric cancer cell line, 72 h. The series is classed as cell-based. As for the experimental part: as §2
Series [10] concerns MKN45 cells. The series is described as follows: MTT cell viability, MKN45. Particulars: Homo sapiens, MKN-45, gastric cancer cell line, 72 h. The series is classed as cell-based. The method, then: as §2
Series [11] deals with TE-1 cells. The series is described as follows: MTT cell viability, TE-1. The series is classed as cell-based. Particulars: Homo sapiens, 72 h. The method, then: as §2
In series [12] the test system is HL-7702 cells. As to the kind of experiment: MTT cell viability, HL-7702. It is filed as cell-based. The following applies: Homo sapiens, L02, normal liver cell line, 72 h. As for the experimental part: as §2
Series [13] relates to KYSE-450 cells. The series is described as follows: MTT cell viability, KYSE-450. The series is classed as cell-based. The following applies: Homo sapiens, esophageal cancer cell line, 72 h. The method, then:
as §2

In series [14] the test system is L02 cells. As to the kind of experiment: MTT cell viability, L02. It is filed as cell-based. The following applies: Homo sapiens, normal liver cell line, 72 h. The method, then:
as §2

The test system of series [15] is Het-1A cells. As to the kind of experiment: MTT cell viability, Het-1A. The series is classed as cell-based. Particulars: Homo sapiens, normal esophageal epithelial cell line, 72 h. As for the experimental part:
as §2

Series [16] concerns GES-1 cells. As to the kind of experiment: MTT cell viability, GES-1. It is filed as cell-based. Particulars: Homo sapiens, GES1, normal gastric epithelial cell line, 72 h. As for the experimental part:
as §2

Series [17] has as its system MCF-7 cells. As to the kind of experiment: MTT cell viability, MCF-7. It is filed as cell-based. Particulars: Homo sapiens, MCF7, breast cancer cell line, 72 h. As for the experimental part:
as §2

For series [18], the system named is pc9 cells. The series is described as follows: MTT cell viability, pc9. The series is classed as cell-based. The following applies: Homo sapiens, PC-9, 72 h. As for the experimental part: as §2
Series [19] relates to SGC-7901 cells. The series is described as follows: MTT cell viability, SGC-7901. The following applies: Homo sapiens, gastric cancer cell line, 72 h. It is filed as cell-based. As for the experimental part:
as §2

For series [20], the system named is EC109 cells. The series is described as follows: MTT cell viability, EC109. It is filed as cell-based. Particulars: Homo sapiens, ECa-109, esophageal cancer cell line, 72 h. As for the experimental part:
as §2

Series [21] has as its system B16-F10 cells. The series is described as follows: MTT cell viability, B16-F10. The series is classed as cell-based. Particulars: Mus musculus, 72 h. As for the experimental part: as §2
Series [22] relates to HepG2 cells. As to the kind of experiment: MTT cell viability, HepG2. The series is classed as cell-based. The following applies: Homo sapiens, liver cancer cell line, 72 h. The method, then: as §2
In series [23] the test system is SMMC-7721 cells. The series is described as follows: MTT cell viability, SMMC-7721. The series is classed as cell-based. Particulars: Homo sapiens, liver cancer cell line, 72 h. As for the experimental part: as §2

As to `C[C@H](Oc1cc(-c2cnn(C3CCNCC3)c2)cnc1N)c1c(Cl)ccc(F)c1Cl` [(S)-crizotinib], the colony formation result is “smaller and fewer colonies” in series [1]; “smaller and fewer colonies” in [2].
By melting point is commonly meant the temperature, or range, at which the solid turns liquid. A word on the IC50: it is the point on the concentration scale where inhibition reaches its midpoint. `Cc1ccc(Nc2nc(SCc3cn(CC(=O)NC(=O)Nc4ccccn4)nn3)nc(-c3ccc(Br)cc3)c2C#N)cc1` [MI-401, 2-(4-((4-(4-bromophenyl)-5-cyano-6-(p-tolylamino)pyrimidin-2-yl)thiomethyl)-1H-1,2,3-triazol-1-yl)-N-(pyridin-2-ylcarbamoyl)acetamide]: the melting point was in the range of 155 to 156 °C. Moreover, the IC50 in [3] amounted to 461.3 ± 2.67 nM. The “temperature of MTH1 degradation” value in series [4] came to 49 °C.
`COc1ccccc1NC(=O)NC(=O)CSC(=S)N1CCCC1` [MI-929]: the IC50 in series [5], in series [6], in series [7], in [8], in series [9] and in series [10] was over 50 µM each time. In addition, the IC50 was over 50 µM in series [11]; over 50 µM in series [12]; over 50 µM in series [13]; over 50 µM in [14]; over 50 µM in series [15]; over 50000 nM in series [3]. Besides, the IC50 in [16], in [17], in [18], in [19], in series [20] and in [21] was over 50 µM in each case. Also, the IC50 in series [22] and in series [23] was over 50 µM each time. Also, the “temperature of MTH1 degradation” value in series [4] amounted to 49 °C.
Regarding `Nc1nc(NC2CC2)cc(-c2cccc(Cl)c2Cl)n1` [TH588], the colony formation result is “smaller and fewer colonies” in series [1]; “smaller and fewer colonies” in [2].
